The values that follow come from patent publication US5776902A, “Boronophenyl analogs of phospholyrosines” (Trustees of Tufts University, priority 1995, dated 1998).

In assay [1] the target is T1, SH2 mediated interaction of middle T and fyn (Homo sapiens, UniProt P06241).
T1 construct: host or cells: middle T: Sf9 cells (baculovirus co-expression with src)
The assay can be described thus: Effect on Middle T/fyn interaction (GST-Fyn pull-down of 32P-labeled middle T, autoradiography). Conditions: GST-Fyn on glutathione-Sepharose beads, 32P-labeled polyoma Middle T, SDS gel autoradiography (FIG. 6); inhibitor 3.95×10^-4 M to 3.95×10^-5 M. It is filed as binding. Here is the method:
Approximately 10 μg of a GST-Fyn fusion protein bound to 10 μl of glutathione-Sepharose beads were incubated with 90 μl of buffer (TEB, pH 9.0) and 10 μl of DMSO or DMSO containing an isomer (#1 or #2) of compound 36 (lanes 2 and 3 equal 3.95×10^-4 M; lane 4 equals 1.32×10^-4 M; lane 5 equals 3.95×10^-5 M). Lane 1 contains no inhibitor. The lanes labeled "MT 315" (lanes 6 and 7) are reaction mixutures as above, but having 20 μg of peptide (middle T residues EEYMPMED) instead of the benzodiazepine 36. The label "pY" indicates the peptide was phosphorylated, while unphosphoryalated peptide is designated as "-". The reaction mixtures were incubated for 1 hour, then 100 μL ^32 P-labeled Middle T (polyoma), prepared from baculovirus co-expression of middle T and src in Sf9 cells, were added to each reaction and incubated for 1 hour more at 4° C. The sepharose was washed with twice with PBS, and once with distilled water, boiled in SDS dissociation buffer, and run on a 7.5% acrylamide SDS gel. Labeled MT was visualized on the gel by autoradiography, and the inhibition of MT/fyn interaction determined.

The next assay addresses T2, lck-SH2 (Homo sapiens, UniProt P06239).
T2 construct: made in house; host or cells: E. coli
In words: IDEXX lck-SH2 binding assay (GST-SH2 beads, FITC-labeled peptide EPQYEEIPIYL). Particulars: inhibition of binding of FITC-labeled peptide to GST-lck SH2 beads (FIG. 7). Here is the method:
In order to assess the inhibitory activity of the present peptidomimetics, the ability of the subject compounds to inhibit the interaction between a specific peptide and an SH2 domain was determined. Various SH2 domains were subcloned in frame with the glutathione-S-transferase affinity tag of the pGEX vector system (Pharmacia catalog no. PGEX-4T-3). The resulting pGEX-E2 construct encoded a glutathione-S-transferase (GST)/SH2 fusion protein (Smith et al. (1988) Gene 67:31-40). The pGEX construct was introduced into E. coli by transfromation, and the transformants grown in liquid media (LB) in the presence of IPTG. Purification of GST/E2 fusion protein was by standard protocols (Current Protocols in Molecular Biology, eds. Ausubel et al. (NY:John Wiley & Sons, 1991); Pharmacia instruction booklet (for catalog no. 27-4570)) using a glutathione-sepharose column (Pharmacia catalog no. 27-4570). Briefly, the cells were pelleted and resuspended in buffer A (50 mM TRIS (pH7.5), 2 mM EDTA, 250 mM NaCl, 5% glycerol (V/V), 1% Tween (V/V), 1% Triton X 100 (V/V)), to which 2 mM PMSF and 15 mM 2-mercaptoethanol were added. […]

T1 sequence (P06241 whole entry, species assumed): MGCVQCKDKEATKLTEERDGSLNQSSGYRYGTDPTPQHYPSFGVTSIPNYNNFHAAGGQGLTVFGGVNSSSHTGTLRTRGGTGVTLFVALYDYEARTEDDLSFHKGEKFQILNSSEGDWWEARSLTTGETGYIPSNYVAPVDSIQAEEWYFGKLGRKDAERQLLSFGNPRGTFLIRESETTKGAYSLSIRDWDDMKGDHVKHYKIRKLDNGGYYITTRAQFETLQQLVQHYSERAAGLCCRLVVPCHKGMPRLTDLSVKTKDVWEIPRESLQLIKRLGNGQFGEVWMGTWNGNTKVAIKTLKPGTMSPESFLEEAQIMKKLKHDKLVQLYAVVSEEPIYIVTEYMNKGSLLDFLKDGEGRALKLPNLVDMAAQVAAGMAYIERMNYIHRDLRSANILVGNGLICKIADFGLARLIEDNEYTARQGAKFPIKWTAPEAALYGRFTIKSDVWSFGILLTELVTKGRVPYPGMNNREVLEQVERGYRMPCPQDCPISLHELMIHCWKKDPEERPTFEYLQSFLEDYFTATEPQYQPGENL
T2 sequence (P06239 127-224 limits assumed): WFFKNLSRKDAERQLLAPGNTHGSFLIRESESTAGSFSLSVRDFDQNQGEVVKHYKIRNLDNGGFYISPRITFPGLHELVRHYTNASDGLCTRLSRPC

Turning to `CC[C@H](C)[C@H](NC(=O)CN1C(=O)C(NC(=O)[C@H](Cc2ccc(OP(=O)(O)O)cc2)NC(C)=O)N=C(c2ccccc2)c2ccccc21)C(=O)OC` (single isomer, unassigned; isomer #2) [isomer #2], the “inhibition of MT/fyn interaction” value in assay [1] was “more potent inhibitor”.
As a reminder, the IC50 is the concentration needed to halve the response being measured. `CC[C@H](C)[C@H](NC(=O)CN1C(=O)C(NC(=O)[C@H](Cc2ccc(OP(=O)(O)O)cc2)NC(=O)OCC2c3ccccc3-c3ccccc32)N=C(c2ccccc2)c2ccccc21)C(=O)OC` (stereo partly drawn) [FMOC-derivative, 1,3-Dihydro-1-[(methoxy-L-isoleucyl)carbonylmethyl)-5-phenyl-3(R,S)-{[(N-fluorenylmethoxycarbonyl)phosphono-L-tyrosyl]amino}-2H-1,4-benzodiazepin-2-one]: the IC50 on lck-SH2 came to 48.2 µM.
On to `CC[C@H](C)[C@H](NC(=O)CN1C(=O)C(NC(=O)[C@H](Cc2ccc(OP(=O)(O)O)cc2)NC(C)=O)N=C(c2ccccc2)c2ccccc21)C(=O)OC` (stereo partly shown) [compound 36], for which the IC50 at lck-SH2 turned out to be 271 µM. In assay [1], the “inhibition of MT/fyn interaction” value is “both isomers of 36 displayed inhibitory action”.
